Among the data in ChEMBL document CHEMBL1135555 (Bioorg Med Chem Lett, 2002) are IC50 and Ki values, retold here.

Experiment [1] in a line: Inhibition of Phosphodiesterase 3 from rat diaphragm.
Experiment [2] concerns the target cGMP-specific 3',5'-cyclic phosphodiesterase (Rattus norvegicus, UniProt O54735). The experiment can be described thus: Inhibition of Phosphodiesterase 5 from rat diaphragm.

What is called IC50 is the concentration at which inhibition is half-maximal. Low values mean inhibition by little substance, high ones a need for much substance. Regarding `C=C(C)C(CCC(C)(C)O)Cc1c(O)cc(OC)c2c1O[C@H](c1ccc(O)cc1O)[C@@H](O)C2=O` (stereo partly specified), the IC50 in experiment [1] was determined as 13500 nM. For `C=C(C)C(CCC(C)(C)O)Cc1c(O)cc(OC)c2c1O[C@H](c1ccc(O)cc1O)[C@H](O)C2=O` (stereo partly specified), the IC50 amounted to 10600 nM in experiment [2] and 12800 nM in experiment [1]. As for `C=C(C)[C@H](CC=C(C)C)Cc1c(O)cc(OC)c(C(=O)/C=C/c2ccc(O)cc2O)c1O` [KURAIDIN], the results for the IC50 in experiment [2] and in experiment [1] were 640 nM and 1250 nM, respectively. On to `C=C(C)[C@H](CCC(C)(C)O)Cc1c(O)cc(OC)c2c1O[C@H](c1ccc(O)cc1O)CC2=O` [KURARINOL], for which the IC50 in experiment [2] came to 6100 nM; in experiment [1], 2950 nM. By Ki is commonly meant the dissociation constant of the complex between target and ligand, obtained from inhibition or displacement. A lower Ki goes with tighter binding. In experiment [2], `COc1cc(O)c(CC=C(C)C)c2oc(-c3ccc(O)cc3)c(O)c(=O)c12` [SOPHOFLAVESCENOL] gave an IC50 of 13 nM and a Ki of 5 nM. This compound also displayed an IC50 in experiment [1] of 410 nM. With `Cc1[nH]c(=O)c(C#N)cc1-c1ccncc1` [MILRINONE], half-maximal inhibition in experiment [1] (IC50) required 740 nM.
